Experimental data taken from patent publication US20140018552A1, “USE OF COMPOUNDS ISOLATED FROM MORUS BARK” (Dong Wha Pharm. Co., Ltd., priority 2011, published 2014).
≈ marks a conversion by molar mass, not a printed value.

Tested on: AGE production
Assay: Assay of inhibition effect on AGE production (BSA with fructose and glucose, fluorescence analysis)
Assay type: biochemical, bovine
Details: 10 mg/ml BSA, 0.2 M fructose and glucose, 37° for 7 days; fluorescence Ex 360 nm/Em 465 nm; average ± standard deviation
Experimental: After preparing 10 mg/ml bovine serum albumin (BSA) dissolved in 50 mM of phosphate buffer (pH 7.4), AGE production was induced by culturing the mixture of 0.2 M of fructose and glucose at 37 °C for 7 days. The compounds extracted from Morus Bark and prepared from Example 1 to 8 was handled in the concentration of 0.1 μg/Ml respectively. (All the compounds were dissolved in 100% of ethanol.) Pyridoxamine known for AGE inhibitor was used as a positive control group. AGE production was induced by using only fructose and glucose to BSA culturing at 37 °C for 7 days. It was handled in the concentration of 0.1 μg/Ml to 1000 μg/Ml.
After 7 days, the amount of AGE produced in culture medium was measured by using microplate reader (Excitation: 360 nm, Emission: 465 nm, fluorescence analysis).
The rate of inhibiting the production was counted by the following numerical formula. […] Also, the average and standard deviation of IC50 value were calculated from at least 3 independent experiments.
The rate of inhibiting the production (%)=100−(Fluorescence intensity of Experimental group−Fluorescence intensity of Reference)/(Fluorescence intensity of Control group−Fluorescence intensity of Control-Reference)×100

Row | Compound | IC50 | IC50 value
1 | CC12CC(c3ccc(O)cc3O1)C13OC1(c1ccc(O)cc1O)Oc1cc(/C=C/c4ccc(O)cc4O)cc(O)c1C3C2=O (centres unmarked) [Example. 4, Kuwanon Z] | 46.1 ± 11.8 µM | 27.4 ± 7.0 µg/mL (≈ 46.1 µM)
2 | Oc1cc(O)cc(/C=C/c2ccc(O)cc2O)c1 [Example. 5, Oxyresveratrol] | 19.3 ± 4.1 µM | 4.7 ± 1.0 µg/mL (≈ 19.2 µM)
3 | O=C1CC(c2ccc(O)cc2O)Oc2cc(O)cc(O)c21 (centres unmarked) [Example. 6, 2′,4′,5,7-tetrahydroxyflavanone] | 96.2 ± 10.1 µM | 27.7 ± 2.9 µg/mL (≈ 96.1 µM)

Other lines, results leading:

Row | IC50 | IC50 value | Compound
4 | 79.5 ± 19.4 µM | 44.7 ± 10.9 µg/mL (≈ 79.5 µM) | CC1=C[C@H]2c3c(O)cc(-c4cc5ccc(O)cc5o4)cc3O[C@@]3(c4ccc(O)cc4O)Oc4cc(O)ccc4[C@H](C1)[C@@H]23 [Example. 1, Mulberrofuran G]
5 | 160 ± 16.7 µM | 70.1 ± 7.3 µg/mL (≈ 160 µM) | CC(C)(O)CCc1c(-c2ccc(O)cc2O)oc2cc3c(c(O)c2c1=O)C=CC(C)(C)O3 [Example. 7, Morusignin L]
6 | 81.9 ± 3.3 µM | 24.9 ± 1.0 µg/mL (≈ 81.8 µM) | O=C1c2c(O)cc(O)cc2OC(c2ccc(O)cc2O)C1O (centres unmarked) [Example. 8, Dihydromorin]
7 | 747 ± 213 µM | 125.7 ± 35.8 µg/mL (≈ 747 µM) | Cc1ncc(CO)c(CN)c1O [Pyridoxamine, reference compound]
